Earlier results, collected in patent US7601333B2, “Use of a tetrapeptide AcSDKP (SEQ ID No. 1) analog resistant to the angiotensin I converting enzyme for measuring glomerular filtration rate in a human or an animal and kit containing same” (Assistance Publique-Hopitaux de Paris, priority 2003, dated 2009).
Residues, ends and D or L forms follow the SMILES beside them.

How the values were obtained:
N-terminal site of ACE = N-terminal site of ACE (Homo sapiens, UniProt P12821); conditions: AcSDKP as substrate, in vitro; cited from earlier work
plasma proteins = conditions: cited from earlier work
[1] = cited from earlier work

Sequence of N-terminal site of ACE (P12821 40-624 limits assumed): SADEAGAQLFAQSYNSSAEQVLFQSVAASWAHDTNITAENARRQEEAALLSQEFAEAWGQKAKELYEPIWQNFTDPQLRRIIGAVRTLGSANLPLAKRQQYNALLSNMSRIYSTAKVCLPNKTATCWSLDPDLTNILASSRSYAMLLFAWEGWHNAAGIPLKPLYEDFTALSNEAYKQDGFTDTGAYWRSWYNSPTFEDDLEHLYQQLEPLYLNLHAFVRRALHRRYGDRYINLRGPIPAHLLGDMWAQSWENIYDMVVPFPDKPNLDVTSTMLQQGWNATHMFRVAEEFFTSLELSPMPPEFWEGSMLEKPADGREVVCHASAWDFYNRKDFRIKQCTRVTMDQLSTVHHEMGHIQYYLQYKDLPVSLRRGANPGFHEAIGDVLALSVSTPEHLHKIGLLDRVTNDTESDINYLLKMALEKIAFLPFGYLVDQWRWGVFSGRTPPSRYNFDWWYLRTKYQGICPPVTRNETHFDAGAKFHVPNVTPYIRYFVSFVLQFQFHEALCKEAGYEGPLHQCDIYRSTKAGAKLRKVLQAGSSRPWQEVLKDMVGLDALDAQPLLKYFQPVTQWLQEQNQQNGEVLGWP

| SMILES | catalytic effectiveness of N-terminal site of ACE relative to C-terminal site (N-terminal site of ACE) [times] | bound to the plasma proteins (plasma proteins) [%] | modification after 3 freezing-thawing cycles [1] |
| --- | --- | --- | --- |
| CC(=O)N[C@@H](CO)C(=O)N[C@@H](CC(=O)O)C(=O)N[C@@H](CCCCN)C(=O)N1CCC[C@H]1C(=O)O [AcSDKP, N-acetyl-Ser-Asp-Lys-Pro] (Ac-SDKP-OH; C-terminus assumed) | 50 | < 1 |  |
| CC(=O)N[C@@H](CO)C(=O)N[C@@H](CC(=O)O)C(=O)N[C@@H](CCCCN)C(=O)N1CCC[C@H]1C(N)=O [AcSDKP-NH2, N-acetyl-Ser-Asp-Lys-Pro-NH2] (Ac-SDKP-NH2) |  |  | no adverse modification |
